Data published in ChEMBL document CHEMBL1201862, “PubChem BioAssay data set” (2004).
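48-hour exposure; five concentrations; linearly interpolated endpoints. GI50 marks 50% less growth.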 Calls of active or inactive are those of the source. No stated cut-off is given here; in the data, active = GI50 up to about 1.1 µM and inactive = higher.

Key:
Assay in all cases: growth of human tumour cells (NCI), 48 h
U-251 = test system: U-251
SF-268 = test system: SF-268
SF-539 = test system: SF-539
MDA-MB-231 = test system: MDA-MB-231
CAKI-1 = test system: CAKI-1
M14 = test system: M14
MCF7 = test system: MCF7
DU-145 = test system: DU-145
KM12 = test system: KM12
NCI/ADR-RES = test system: NCI/ADR-RES
A498 = test system: A498
A549 = test system: A549
SNB-75 = test system: SNB-75
NCI-H460 = test system: NCI-H460
RPMI-8226 = test system: RPMI-8226
HL-60 = test system: HL-60
MDA-N = test system: MDA-N
CCRF-CEM = test system: CCRF-CEM
NCI-H226 = test system: NCI-H226
RXF 393 = test system: RXF 393

Structure (SMILES) | GI50 (U-251) | GI50 (SF-268) | GI50 (SF-539) | GI50 (MDA-MB-231) | GI50 (CAKI-1) | GI50 (M14) | GI50 (MCF7) | GI50 (DU-145) | GI50 (KM12) | GI50 (NCI/ADR-RES) | GI50 (A498) | GI50 (A549) | GI50 (SNB-75) | GI50 (NCI-H460) | GI50 (RPMI-8226) | GI50 (HL-60) | GI50 (MDA-N) | GI50 (CCRF-CEM) | GI50 (NCI-H226) | GI50 (RXF 393)
CCOC(=O)C1C(c2ccc(OC)cc2)c2c(n[nH]c2O)CC1(O)OCC (configuration not stated) | > 100 µM (inactive) | > 100 µM (inactive) | > 100 µM (inactive) | > 100 µM (inactive) | > 100 µM (inactive) | > 100 µM (inactive) | > 100 µM (inactive) | > 100 µM (inactive) | > 100 µM (inactive) | > 100 µM (inactive) | > 100 µM (inactive) | > 100 µM (inactive) | > 100 µM (inactive) | > 100 µM (inactive) | > 100 µM (inactive) | > 100 µM (inactive) | > 100 µM (inactive) | > 100 µM (inactive) |  | 
CC1(C)O[C@H]2[C@@H]3N=C(c4ccccc4)O[C@@H]3C=C[C@H]2O1 | > 100 µM (inactive) | 17.6 µM (inactive) | > 100 µM (inactive) | > 100 µM (inactive) | > 100 µM (inactive) | > 100 µM (inactive) | > 100 µM (inactive) | > 100 µM (inactive) | > 100 µM (inactive) | > 100 µM (inactive) | > 100 µM (inactive) | > 100 µM (inactive) |  |  | > 100 µM (inactive) | > 100 µM (inactive) | > 100 µM (inactive) | > 100 µM (inactive) | > 100 µM (inactive) | 
Cc1ccc(N2C(=O)C=C(C3=C(O)C(=O)N(c4ccc(C)cc4)C3=O)C2=O)cc1 | > 100 µM (inactive) | > 100 µM (inactive) |  | > 100 µM (inactive) |  | > 100 µM (inactive) | > 100 µM (inactive) | > 100 µM (inactive) |  | > 100 µM (inactive) | > 100 µM (inactive) | > 100 µM (inactive) | 42.3 µM (inactive) | > 100 µM (inactive) | > 100 µM (inactive) | > 100 µM (inactive) | > 100 µM (inactive) | > 100 µM (inactive) | > 100 µM (inactive) | 
O=C(NC1=C(Cl)C(=O)c2ccccc2C1=O)c1ccc(F)cc1 | 1.85 µM (inactive) | 7.57 µM (inactive) | 4.4 µM (inactive) | 4.4 µM (inactive) |  | 2.6 µM (inactive) | 3.62 µM (inactive) | 4.68 µM (inactive) | 3.08 µM (inactive) | 3.37 µM (inactive) |  | 5.37 µM (inactive) | 5.83 µM (inactive) | 2.87 µM (inactive) | 2.51 µM (inactive) | 0.341 µM (active) | 3.33 µM (inactive) | 0.802 µM (active) | 1.1 µM (active) | 1.25 µM (inactive)
O=C(C/N=C(\CN(c1ccccc1)c1ccccc1)Oc1c([N+](=O)[O-])cc([N+](=O)[O-])cc1[N+](=O)[O-])N1CCNCC1 | > 100 µM (inactive) | > 100 µM (inactive) | > 100 µM (inactive) | > 100 µM (inactive) |  | > 100 µM (inactive) | > 100 µM (inactive) | > 100 µM (inactive) | > 100 µM (inactive) |  |  | > 100 µM (inactive) | 10.5 µM (inactive) | > 100 µM (inactive) | > 100 µM (inactive) | > 100 µM (inactive) | > 100 µM (inactive) | > 100 µM (inactive) | > 100 µM (inactive) | 69.8 µM (inactive)
O=C(Nc1sccc1S(=O)(=O)c1ccc(Cl)cc1)C(F)(F)F | 34.6 µM (inactive) | 17.5 µM (inactive) | 26.1 µM (inactive) | 13.7 µM (inactive) | 24.9 µM (inactive) | 38.3 µM (inactive) | 28.8 µM (inactive) | 31.6 µM (inactive) | 13.4 µM (inactive) | 18.4 µM (inactive) | 33.9 µM (inactive) | 29.2 µM (inactive) | 20.9 µM (inactive) | 27.4 µM (inactive) | 3.88 µM (inactive) |  | 8.28 µM (inactive) |  | 29.6 µM (inactive) | 
Cn1c(=O)cc(NNc2ccc(Br)cc2)[nH]c1=O | 3.05 µM (inactive) |  | 3.31 µM (inactive) | 14.6 µM (inactive) |  | 15.5 µM (inactive) | 10.4 µM (inactive) | 6.55 µM (inactive) | 2.24 µM (inactive) | 31.1 µM (inactive) | 44.3 µM (inactive) | 13.9 µM (inactive) |  | 4.26 µM (inactive) | 6 µM (inactive) | 2.99 µM (inactive) | 14.7 µM (inactive) | 0.431 µM (active) | 18.2 µM (inactive) | 
O=C(NCc1ccccc1)c1nn[nH]c1O | > 100 µM (inactive) | > 100 µM (inactive) |  | > 100 µM (inactive) | > 100 µM (inactive) | > 100 µM (inactive) | > 100 µM (inactive) | > 100 µM (inactive) | > 100 µM (inactive) | > 100 µM (inactive) |  | > 100 µM (inactive) | > 100 µM (inactive) | > 100 µM (inactive) | > 100 µM (inactive) | > 100 µM (inactive) | > 100 µM (inactive) | > 100 µM (inactive) | > 100 µM (inactive) | > 100 µM (inactive)
